In patent US6984649B1, “Pyridine derivatives” (Bayer Aktiengesellschaft, priority 2000, dated 2006):
Counter-ions that a name gives are not always drawn.

Tested on: A549 human lung epithelium cell line
Assay: RANTES production in response to TNF-α from A549 cells
Format: cell-based
Settings: Homo sapiens, A549, A549 cells, 100 ng/ml TNF-α, read-out: Cellular activity grade (A549) (Cellular IC50)
Experimental: [The Measurement of RANTES Production in Response to TNF-α from A549 Cells]
(1) Preparation of A549 Cells
• The A549 human lung epithelium cell line (ATCC […]) was maintained in Dulbecco's modified Eagle's medium (D-MEM, Nikken Biomedical Institute) supplemented with 10% FCS (Gibco), 100 U/ml penicillin, 100 μg/ml streptomycin, and 2 mM glutamine (culture medium). Forty thousand (4×10^4) cells (80 μl/well) were seeded in each well of 96 well flat-bottom tissue culture plate (Falcon #3072). The plate was allowed to stand for 2 hrs, thus the cells were adhered to the bottom of each well. To the each well was added 10 μl vehicle (1% DMSO), serial dilutions of test compounds in 1% DMSO, or 5 nM Dexamethasone in 1% DMSO as a reference. The mixture (90 μl/well) was incubated for 1 hr at 37° C. After 1 hr, 1 μg/ml TNF-α (10 μl) in culture medium was added to the mixture to obtain 100 μl of reaction mixture. The reaction mixture was cultured for 24 hrs to stimulate the cells with 100 ng/ml TNF-α. Cells with vehicle without TNF-α stimulation were also prepared. (2) Measurement of RANTES Production • Then the concentration of RANTES released from the cells in the supernatants of each well was determined using a quantitative sandwich enzyme immunoassay technique. First, 2 μg/ml mouse anti-huRANTES mAb (R&D Systems, #mAb678) in PBS buffer (pH 7.4, 100 μl) was put in each well of 96-well NUNC fluoro plate (Nalge Nunc, New York USA) (Final 200 ng/well) and the plate was allowed to stand for overnight at 4° C. to be coated by the antibody. Each well of the plate was then washed with 350 μl wash buffer (0.05% Tween-20, 0.85% NaCl, and 25 mM Tris/HCl pH7.4) for three times. Blocking buffer containing 1% BSA (Sigma 99% pure, 100 g), 5% sucrose (Nacalai tesque, 99% pure, 500 g), and 0.02% azide (Nacalai tesque, 100%, 500 g) were added (200 μl) to each well and then the plate was allowed to stand for 4 hours to stabilize the coated antibody. Next, 50 μl supernatants of cell culture prepared in (1) above were put in each well of the 96-well NUNC fluoro plate with coated antibody. Recombinant Human RANTES (Pepro Tech, Inc. #300-06) was used as the standard for the determination of RANTES production (linear range between 1 and 10 ng/ml). Eu-labelled mouse anti-huRANES mAb (60 ng/ml: R&D Systems, #mAb278) in PBS supplemented by 1% BSA and 0.05% Tween 20 was added (50 μl) to each well. The reaction mixtures were incubated at room temperature for 4 hrs. After washing with wash buffer (0.05% Tween-20, 0.85% NaCl, and 25 mM Tris/HCl pH7.4, 350 μl/well) for 5 times with the use of a Sera Washer (Bio-Tech, #MW-96R), the enhancement solution (DELFIA, #1244-405, 100 μl/well) was added to each well. The plate was incubated for 10 minutes at room temperature with moderate shaking. Fluorescent intensity was measured using a DELFIA fluorimeter (Wallac). Excitation was performed at 340 nm and emission was measured at 615 nm. [The Measurement of TNF-α Production in Response to LPS from Peripheral Blood Mononuclear Cells (PBMC)] (1) Preparation of PBMC • Human PBMC were prepared by first obtaining blood from healthy donors and isolating the cells from the blood. The isolation was done by Ficoll gradient-centrifugation method using Ficoll Pacque (Pharmacia #17-1440-02). Within three hours from donation, the isolated PBMC was used. After three times washing with PBS, PBMC were resuspended with RPMI 1640 (Nikken BioMedical Institute) supplemented with 10% FCS (Gibco), 100 U/ml penicillin, 100 μg/ml streptomycin, and 2 mM glutamine (culture medium). The cells (1×10^5 in 150 μL/well) were seeded in each well of 96 well flat-bottom tissue culture plate (Falcon #3072). To the each well was added 20 μl vehicle (1% DMSO), serial dilutions of test compounds in 1% DMSO, or 250 nM Dexamethasone in 1% DMSO as a reference. The mixture (170 μl/well) was incubated for 1 hr at 37° C. After 1 hr, 20 ng/ml LPS (30 μl) in culture medium was added to the mixture to obtain 200 μl of reaction mixture. […]

SMILES	IC50
Nc1nc(-c2ccccc2O)cc2c1C(=O)N1CCCC2C1 (stereo not shown) [Example 8-1, 6-amino-4-(2-hydroxy-phenyl)-5,9-diaza-tricyclo[7.3.1.0^2,7]trideca-2(7),3,5-trien-8-one]	1000 to 10000 nM
Nc1nc(-c2ccccc2O)cc2c1CN[C@@H]2Cc1ccccc1 [Example 20-2, 2-[(1R)-4-amino-1-benzyl-2,3-dihydro-1H-pyrrolo[3,4-d]pyridin-6-yl]phenol hydrochloride]	1000 to 10000 nM
O=c1[nH]c(=O)c2c(C3CCCNC3)cc(-c3ccccc3O)nc2[nH]1 (stereo not shown) [Example 7-2, 7-(2-hydroxyphenyl)-5-(3-piperidinyl)pyrido[2,3-d]pyrimidine-2,4(1H,3H)-dione hydrochloride]	> 10000 nM
N#Cc1c(N2CCOCC2)cc(-c2ccccc2O)nc1N [Example 34-1, 2-amino-6-(2-hydroxyphenyl)-4-(4-morpholinyl)nicotinonitrile]	> 10000 nM
CC(C)(C)OC(=O)c1c(C2CCCNC2)cc(-c2ccccc2O)nc1N (stereo not shown) [Example 9-1, tert-butyl 2-amino-6-(2-hydroxyphenyl)-4-(3-piperidinyl)nicotinate hydrochloride]	1000 to 10000 nM
CNC(=O)c1c(C2CCCNC2)cc(-c2ccccc2O)nc1N (stereo not shown) [Example 8-2, 2-amino-6-(2-hydroxyphenyl)-N-methyl-4-(3-piperidinyl)nicotinamide hydrochloride]	1000 to 10000 nM
CC(=O)Nc1n[nH]c2nc(-c3ccccc3O)cc(C3CCCNC3)c12 (stereo not shown) [Example 5-2, N-[6-(2-hydroxyphenyl)-4-(3-piperidinyl)-1H-pyrazolo[3,4-b]pyridin-3-yl]acetamide hydrochloride]	> 10000 nM
N#Cc1c(C2CCCNC2)cc(-c2ccccc2O)nc1Nc1ccccc1 (stereo not shown) [Example 4-4, hydrochloride]	1000 to 10000 nM
CNC1CCCC(c2cc(-c3ccccc3O)nc(N)c2C#N)C1 (stereo not shown) [Example 1-5, 2-amino-6-(2-hydroxyphenyl)-4-[3-methylamino]cyclohexyl]nicotinonitrile hydrochloride]	1000 to 10000 nM
Nc1nc(-c2ccccc2O)cc(C2=CCCNC2)c1CO [Example 11-4, 2-[6′-amino-5′-(hydroxymethyl)-1,2,5,6-tetrahydro-3,4′-bipyridin-2′-yl]phenol hydrochloride]	< 1000 nM
N#Cc1c(C2CCCNC2)cc(-c2c(N)cccc2O)nc1N (stereo not shown) [Example 1-10, 2-amino-6-(2-amino-6-hydroxyphenyl)-4-(3-piperidinyl)nicotinonitrile hydrochloride]	> 10000 nM
N#Cc1c(N2CCCC(N)C2)cc(-c2ccccc2O)nc1N (stereo not shown) [Example 34-3, 2-amino-4-(3-amino-1-piperidinyl)-6-(2-hydroxyphenyl)nicotinonitrile hydrochloride]	1000 to 10000 nM
Oc1ccccc1-c1cc(C2CCCNC2)c2cn[nH]c2n1 (stereo not shown) [Example 16-1, 2-(4-Piperidin-3-yl-1H-pyrazolo[3,4-b]pyridin-6-yl)-phenol hydrochloride]	1000 to 10000 nM
N#Cc1c(C2CCCNC2)cc(-c2ncccc2O)nc1N (stereo not shown) [Example 1-6, 6-amino-3′-hydroxy-4-(3-piperidinyl)-2,2′-bipyridine-5-carbonitrile hydrochloride]	< 1000 nM

Next, values leading:

IC50	SMILES
< 1000 nM	CCOC(=O)NCc1c(C2CCCNC2)cc(-c2c(O)cccc2OCC2CC2)nc1N (stereo not shown) [Example 23-2, ethyl [2-amino-6-[2-(cyclopropylmethoxy)-6-hydroxyphenyl]-4-(3-piperidinyl)-3-pyridinyl]methylcarbamate hydrochloride]
1000 to 10000 nM	O=C(O)c1cc2c(C3CCCNC3)cc(-c3c(O)cccc3OCC3CC3)nc2[nH]c1=O (stereo not shown) [Example 30-1, 7-(2-cyclopropylmethoxy-6-hydroxy-phenyl)-2-oxo-5-piperidin-3-yl-1,2-dihydro[1,8]naphthyridine-3-carboxylic acid hydrochloride]
< 1000 nM	CC(=O)Nc1cc2c(C3CCCNC3)cc(-c3c(O)cccc3OCC3CC3)nc2[nH]c1=O (stereo not shown) [Example 29-3, N-[7-[2-(cyclopropylmethoxy)-6-hydroxyphenyl]-2-oxo-5-(3-piperidinyl)-1,2-dihydro-1,8-naphthyridin-3-yl]acetamide hydrochloride]
< 1000 nM	CNC(=O)c1c(C2CCCNC2)cc(-c2c(O)cccc2OCC2CC2)nc1N (stereo not shown) [Example 8-3, 2-amino-6-[2-(cyclopropylmethoxy)-6-hydroxyphenyl]-N-methyl-4-(3-piperidinyl)nicotinamide hydrochloride]
< 1000 nM	O=C1NCc2c(C3CCNCC3)cc(-c3c(O)cccc3OCC3CC3)nc2N1 [Example 22-3, 7-[2-(cyclopropylmethoxy)-6-hydroxyphenyl]-5-(4-piperidinyl)-3,4-dihydro-1H-pyrido[2,3-d]pyrimidin-2-one hydrochloride]
< 1000 nM	CCCNC(=O)c1cc2c(C3CCCNC3)cc(-c3c(O)cccc3OCC3CC3)nc2[nH]c1=O (stereo not shown) [Example 31-1, 7-[2-(cyclopropylmethoxy)-6-hydroxyphenyl]-2-oxo-5-(3-pipedinyl)-N-propyl-1,2-dihydro-1,8-naphthyridine-3-carboxamide]
> 10000 nM	Nc1nc(-c2c(O)cccc2OCc2ccccc2)cc2c1CN1CCCC2C1 (stereo not shown) [Example 20-1, 2-(6-amino-5,9-diazatricyclo[7.3.1.02,7]trideca-2,4,6-trien-4-yl)-3-(benzyloxy)phenol hydrochloride]
< 1000 nM	CN1CCCC(c2cc(-c3c(O)cccc3OCC3CC3)nc(N)c2C#N)C1 (stereo not shown) [Example 3-1, 2-amino-6-[2-(cyclopropylmethoxy)-6-hydroxyphenyl]-4-(1-methyl-3-piperidinyl)nicotinonitrile]
< 1000 nM	Nc1nc(-c2c(O)cccc2OCC2CC2)cc(C2CCNCC2)c1Cn1ccnc1 [Example 21-2, 2-[6-amino-5-(1H-imidazol-1-ylmethyl)-4-(4-piperidinyl)-2-pyridinyl]-3-(cyclopropylmethoxy)phenol hydrochloride]
< 1000 nM	NCCNc1cc(-c2c(O)cccc2OCC2CC2)nc2c1COC(=O)N2 [Example 35-1, 5-[(2-aminoethyl)amino]-7-[2-(cyclopropylmethoxy)-6-hydroxyphenyl]-1,4-dihydro-2H-pyrido[2,3-d][1,3]oxazin-2-one hydrochloride]
< 1000 nM	Nc1nc(-c2c(O)cccc2OCC2CC2)cc(C2CCNCC2)c1COc1ccccc1 [Example 21-3, 2-[6-amino-5-(phenoxymethyl)-4-(4-piperidinyl)-2-pyridinyl]-3-(cyclopropylmethoxy)phenol hydrochloride]
< 1000 nM	Nc1nc(-c2c(O)cccc2OCC2CC2)cc(C2CCCNC2)c1CO (stereo not shown) [Example 12-1, 2-[6-amino-5-(hydroxymethyl)-4-(3-piperidinyl)-2-pyridinyl]-3-(cyclopropylmethoxy)phenol hydrochloride]
< 1000 nM	Oc1cccc(OCC2CC2)c1-c1cc(C2CCCNC2)c2c(n1)NCCC2 (stereo not shown) [Example 28-01, 3-(cyclopropylmethoxy)-2-[4-(3-piperidinyl)-5,6,7,8-tetrahydro-1,8-naphthyridin-2-yl]phenol]
1000 to 10000 nM	Nc1nc(-c2ccccc2O)cc(C2CCCNC2)c1C(O)c1ccccc1 (stereo not shown) [Example 15-2, 2-[6-amino-5-[hydroxy(phenyl)methyl]-4-(3-piperidinyl)-2-pyridinyl]phenol hydrochloride]
